{
  "source": "paper PMC10211317",
  "about": "“Identification of ARUK2002821 as an isoform-selective PI5P4Kα inhibitor” (RSC Medicinal Chemistry, 2023)",
  "key": {"[1]": {"assay": "Turbidimetric aqueous solubility", "type": "physicochemical", "details": "PBS buffer; pH 7.4 in aqueous buffer", "protocol": "(§1) ADMET experimental methods […]\nTurbidimetric aqueous solubility: analysis was performed by Cyprotex Discovery. Compound in DMSO at 10 mM was serially diluted to solutions of 0.1, 0.3, 1 and 3 mM in DMSO, then further diluted 1 in 100 in buffer (0.01 M PBS, pH 7.4, 1% DMSO final). 7 replicate wells of each dilution were equilibrated for 2 hours at 37 °C before absorbance is measured at 620 nm. The solubility is estimated from the concentration of test compound that produces an increase in absorbance above vehicle control (1% DMSO in buffer). […]"}, "[2]": {"assay": "Mouse microsomal stability", "type": "in vitro ADME", "details": "mouse liver microsomes; read-out: MLM t1/2", "protocol": "as §1\nMouse Microsomal stability: analysis was performed by Cyprotex Discovery. Briefly, test compounds in DMSO were incubated at a concentration of 1 µM (0.25% DMSO final) with mouse hepatic microsomes (0.5 mg protein/mL) in the presence of NADPH (1 mM) at 37 °C. Aliquots were taken at time intervals (0, 5, 15, 30 and 45 min) and stopped by transferring into acetonitrile, then analysed using generic LC-MS/MS conditions for compound remaining, allowing the determination of the half-life for the compound."}, "[3]": {"biological_target": "PIP5K2A (PI5P4Kα) (Homo sapiens, UniProt P48426)", "assay": "Lipid kinase panel (MRC PPU)", "type": "biochemical", "details": "read-out: residual activity (%)"}, "[4]": {"biological_target": "ABL (Homo sapiens, UniProt P00519)", "assay": "Premier Screen kinase panel (MRC PPU)", "type": "biochemical", "details": "ABL (Entrez ABL1), read-out: Residual activity (%)", "protocol": "(§2) room temperature with shaking for 30 minutes. The kinase concentration in the eluates was measured by qPCR.\n(§3) using ADP-GloTM assay at the MRC PPU International Centre for Kinase Profiling, University of Dundee.\n(§4) Conducted by MRC PPU International Centre\n(§5) Conducted by MRC PPU International Centre for […]"}, "[5]": {"biological_target": "BRSK2 (Homo sapiens, UniProt Q8IWQ3)", "assay": "Premier Screen kinase panel (MRC PPU)", "type": "biochemical", "details": "BRSK2 (Entrez BRSK2), read-out: Residual activity (%)", "protocol": "as §2, §3, §4, §5"}, "[6]": {"biological_target": "BTK (Homo sapiens, UniProt Q06187)", "assay": "Premier Screen kinase panel (MRC PPU)", "type": "biochemical", "details": "BTK (Entrez BTK), read-out: Residual activity (%)", "protocol": "as §2, §3, §4, §5"}, "[7]": {"biological_target": "DYRK1A (Homo sapiens, UniProt Q13627)", "assay": "Premier Screen kinase panel (MRC PPU)", "type": "biochemical", "details": "DYRK1A (Entrez DYRK1A), read-out: Residual activity (%)", "protocol": "as §2, §3, §4, §5"}, "[8]": {"biological_target": "EPH-A2 (Homo sapiens, UniProt P29317)", "sequence (P29317 24-976)": "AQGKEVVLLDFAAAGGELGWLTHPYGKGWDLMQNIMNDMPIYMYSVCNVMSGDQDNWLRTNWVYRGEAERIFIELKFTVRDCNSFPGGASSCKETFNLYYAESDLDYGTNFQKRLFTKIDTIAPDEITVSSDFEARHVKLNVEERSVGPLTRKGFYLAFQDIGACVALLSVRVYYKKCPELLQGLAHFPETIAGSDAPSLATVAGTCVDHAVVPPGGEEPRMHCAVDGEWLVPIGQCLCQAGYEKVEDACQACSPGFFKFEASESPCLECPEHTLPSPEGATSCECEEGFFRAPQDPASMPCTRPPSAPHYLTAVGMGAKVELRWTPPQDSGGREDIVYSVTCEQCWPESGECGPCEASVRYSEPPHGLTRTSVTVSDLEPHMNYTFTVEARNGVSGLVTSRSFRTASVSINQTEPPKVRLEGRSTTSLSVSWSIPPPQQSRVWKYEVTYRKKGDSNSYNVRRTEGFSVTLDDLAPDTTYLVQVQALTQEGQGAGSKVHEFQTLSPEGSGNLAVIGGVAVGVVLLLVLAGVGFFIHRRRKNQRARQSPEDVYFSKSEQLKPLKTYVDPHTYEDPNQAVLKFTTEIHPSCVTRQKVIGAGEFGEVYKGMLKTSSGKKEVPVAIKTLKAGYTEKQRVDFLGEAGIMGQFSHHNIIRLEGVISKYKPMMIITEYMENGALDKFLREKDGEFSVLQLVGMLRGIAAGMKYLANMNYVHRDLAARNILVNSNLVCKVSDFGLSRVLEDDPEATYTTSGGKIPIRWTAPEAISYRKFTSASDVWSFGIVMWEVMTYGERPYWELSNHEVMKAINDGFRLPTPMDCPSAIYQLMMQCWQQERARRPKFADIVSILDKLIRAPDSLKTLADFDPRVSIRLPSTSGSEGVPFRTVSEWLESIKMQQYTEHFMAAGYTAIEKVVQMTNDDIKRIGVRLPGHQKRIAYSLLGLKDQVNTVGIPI", "assay": "Premier Screen kinase panel (MRC PPU)", "type": "biochemical", "details": "EPH-A2 (Entrez EPHA2), read-out: Residual activity (%)", "protocol": "as §2, §3, §4, §5"}, "[9]": {"biological_target": "EPH-A4 (Homo sapiens, UniProt P54764)", "sequence (P54764 20-986)": "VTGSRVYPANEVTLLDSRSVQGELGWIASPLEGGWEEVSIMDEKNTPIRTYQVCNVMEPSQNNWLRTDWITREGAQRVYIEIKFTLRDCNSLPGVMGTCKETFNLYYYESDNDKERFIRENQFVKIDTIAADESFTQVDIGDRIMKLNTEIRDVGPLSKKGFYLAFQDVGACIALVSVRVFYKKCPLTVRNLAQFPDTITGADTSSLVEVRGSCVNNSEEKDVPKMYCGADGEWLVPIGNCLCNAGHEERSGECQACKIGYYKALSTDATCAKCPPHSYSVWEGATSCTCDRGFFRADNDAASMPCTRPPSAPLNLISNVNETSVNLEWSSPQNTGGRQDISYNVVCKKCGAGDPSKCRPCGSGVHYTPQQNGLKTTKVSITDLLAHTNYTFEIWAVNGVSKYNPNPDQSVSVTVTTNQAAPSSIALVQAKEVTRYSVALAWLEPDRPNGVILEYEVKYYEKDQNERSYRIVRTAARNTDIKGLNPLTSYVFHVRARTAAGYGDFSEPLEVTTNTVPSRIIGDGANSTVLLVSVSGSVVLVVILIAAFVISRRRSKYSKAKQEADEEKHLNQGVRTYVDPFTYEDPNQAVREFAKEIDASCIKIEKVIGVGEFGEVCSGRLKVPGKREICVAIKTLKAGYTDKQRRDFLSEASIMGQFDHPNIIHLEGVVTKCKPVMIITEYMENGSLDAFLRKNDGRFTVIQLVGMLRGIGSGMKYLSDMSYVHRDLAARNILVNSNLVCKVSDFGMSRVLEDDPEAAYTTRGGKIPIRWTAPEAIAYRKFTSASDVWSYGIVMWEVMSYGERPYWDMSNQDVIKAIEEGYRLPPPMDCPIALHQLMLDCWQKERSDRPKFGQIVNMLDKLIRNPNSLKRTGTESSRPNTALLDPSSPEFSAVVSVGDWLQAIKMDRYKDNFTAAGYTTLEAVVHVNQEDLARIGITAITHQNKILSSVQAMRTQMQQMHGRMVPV", "assay": "Premier Screen kinase panel (MRC PPU)", "type": "biochemical", "details": "EPH-A4 (Entrez EPHA4), read-out: Residual activity (%)", "protocol": "as §2, §3, §4, §5"}, "[10]": {"biological_target": "IRAK1 (Homo sapiens, UniProt P51617)", "sequence (P51617 whole entry)": "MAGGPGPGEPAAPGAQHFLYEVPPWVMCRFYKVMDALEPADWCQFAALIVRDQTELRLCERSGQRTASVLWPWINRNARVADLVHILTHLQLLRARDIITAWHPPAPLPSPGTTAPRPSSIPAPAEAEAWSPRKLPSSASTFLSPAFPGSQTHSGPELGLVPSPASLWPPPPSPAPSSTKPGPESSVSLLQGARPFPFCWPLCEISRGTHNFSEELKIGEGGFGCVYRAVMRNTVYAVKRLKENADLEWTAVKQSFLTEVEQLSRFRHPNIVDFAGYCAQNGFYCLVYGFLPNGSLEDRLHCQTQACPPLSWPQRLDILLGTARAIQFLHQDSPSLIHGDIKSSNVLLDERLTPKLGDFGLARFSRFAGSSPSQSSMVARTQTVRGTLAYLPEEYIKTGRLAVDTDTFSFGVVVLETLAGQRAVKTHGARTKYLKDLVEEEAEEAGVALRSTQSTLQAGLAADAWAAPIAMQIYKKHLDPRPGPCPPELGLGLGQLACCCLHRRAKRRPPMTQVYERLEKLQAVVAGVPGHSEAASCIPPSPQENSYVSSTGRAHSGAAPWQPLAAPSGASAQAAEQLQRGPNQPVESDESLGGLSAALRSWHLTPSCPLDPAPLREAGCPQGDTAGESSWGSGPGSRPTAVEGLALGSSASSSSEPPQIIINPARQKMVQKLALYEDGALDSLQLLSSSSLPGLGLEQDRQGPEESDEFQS", "assay": "Premier Screen kinase panel (MRC PPU)", "type": "biochemical", "details": "IRAK1 (Entrez IRAK1), read-out: Residual activity (%)", "protocol": "as §2, §3, §4, §5"}, "[11]": {"biological_target": "IRR (Homo sapiens, UniProt P14616)", "assay": "Premier Screen kinase panel (MRC PPU)", "type": "biochemical", "details": "IRR (Entrez INSRR), read-out: Residual activity (%)", "protocol": "as §2, §3, §4, §5"}, "[12]": {"biological_target": "JNK1 (Homo sapiens, UniProt P45983)", "assay": "Premier Screen kinase panel (MRC PPU)", "type": "biochemical", "details": "JNK1 (Entrez MAPK8), read-out: Residual activity (%)", "protocol": "as §2, §3, §4, §5"}, "[13]": {"biological_target": "MAPKAP-K2 (Homo sapiens, UniProt P49137)", "assay": "Premier Screen kinase panel (MRC PPU)", "type": "biochemical", "details": "MAPKAP-K2 (Entrez MAPKAPK2), read-out: Residual activity (%)", "protocol": "as §2, §3, §4, §5"}, "[14]": {"biological_target": "MARK2 (Homo sapiens, UniProt Q7KZI7)", "sequence (Q7KZI7 whole entry, species assumed)": "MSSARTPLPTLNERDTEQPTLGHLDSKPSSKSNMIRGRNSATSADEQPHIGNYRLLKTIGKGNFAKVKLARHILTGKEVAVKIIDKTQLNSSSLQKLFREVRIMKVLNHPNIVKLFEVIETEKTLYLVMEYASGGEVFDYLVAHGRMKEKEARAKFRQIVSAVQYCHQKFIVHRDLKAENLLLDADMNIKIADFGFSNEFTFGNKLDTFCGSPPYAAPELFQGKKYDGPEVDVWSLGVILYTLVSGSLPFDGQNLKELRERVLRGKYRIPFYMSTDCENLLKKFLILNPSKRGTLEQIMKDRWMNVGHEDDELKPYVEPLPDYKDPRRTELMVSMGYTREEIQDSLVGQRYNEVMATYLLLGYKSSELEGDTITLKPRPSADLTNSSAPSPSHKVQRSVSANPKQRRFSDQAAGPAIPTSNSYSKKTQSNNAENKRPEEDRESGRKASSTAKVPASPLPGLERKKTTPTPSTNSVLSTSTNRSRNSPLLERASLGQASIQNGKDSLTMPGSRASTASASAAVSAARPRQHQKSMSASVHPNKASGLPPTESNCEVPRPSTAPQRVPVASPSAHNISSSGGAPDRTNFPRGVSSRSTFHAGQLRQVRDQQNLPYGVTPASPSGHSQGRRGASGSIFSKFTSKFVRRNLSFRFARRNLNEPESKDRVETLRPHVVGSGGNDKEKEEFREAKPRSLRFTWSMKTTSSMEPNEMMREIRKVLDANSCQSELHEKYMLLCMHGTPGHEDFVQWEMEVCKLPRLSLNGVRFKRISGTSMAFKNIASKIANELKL", "assay": "Premier Screen kinase panel (MRC PPU)", "type": "biochemical", "details": "MARK2 (Entrez MARK2), read-out: Residual activity (%)", "protocol": "as §2, §3, §4, §5"}, "[15]": {"biological_target": "MEKK1 (Homo sapiens, UniProt Q13233)", "assay": "Premier Screen kinase panel (MRC PPU)", "type": "biochemical", "details": "MEKK1 (Entrez MAP3K1), read-out: Residual activity (%)", "protocol": "as §2, §3, §4, §5"}, "[16]": {"biological_target": "MELK (Homo sapiens, UniProt Q14680)", "sequence (Q14680 whole entry)": "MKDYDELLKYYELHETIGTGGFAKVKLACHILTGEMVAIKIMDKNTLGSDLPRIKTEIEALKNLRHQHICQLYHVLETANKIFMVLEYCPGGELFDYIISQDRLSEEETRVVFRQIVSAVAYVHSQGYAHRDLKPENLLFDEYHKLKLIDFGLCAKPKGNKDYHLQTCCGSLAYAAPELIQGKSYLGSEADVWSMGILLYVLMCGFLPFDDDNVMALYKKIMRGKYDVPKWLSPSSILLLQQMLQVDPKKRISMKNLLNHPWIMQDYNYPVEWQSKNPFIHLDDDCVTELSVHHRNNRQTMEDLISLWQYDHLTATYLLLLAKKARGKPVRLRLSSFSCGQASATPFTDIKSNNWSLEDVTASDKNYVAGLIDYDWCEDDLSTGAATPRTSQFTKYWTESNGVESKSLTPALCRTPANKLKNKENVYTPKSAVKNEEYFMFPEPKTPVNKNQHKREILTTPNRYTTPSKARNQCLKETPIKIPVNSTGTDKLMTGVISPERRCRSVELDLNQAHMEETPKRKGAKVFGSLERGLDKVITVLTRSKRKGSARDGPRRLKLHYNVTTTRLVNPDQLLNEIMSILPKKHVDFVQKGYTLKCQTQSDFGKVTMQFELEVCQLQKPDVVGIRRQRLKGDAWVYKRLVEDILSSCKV", "assay": "Premier Screen kinase panel (MRC PPU)", "type": "biochemical", "details": "MELK (Entrez MELK), read-out: Residual activity (%)", "protocol": "as §2, §3, §4, §5"}, "[17]": {"biological_target": "MNK1 (Homo sapiens, UniProt Q9BUB5)", "assay": "Premier Screen kinase panel (MRC PPU)", "type": "biochemical", "details": "MNK1 (Entrez MKNK1), read-out: Residual activity (%)", "protocol": "as §2, §3, §4, §5"}, "[18]": {"biological_target": "PAK4 (Homo sapiens, UniProt O96013)", "assay": "Premier Screen kinase panel (MRC PPU)", "type": "biochemical", "details": "PAK4 (Entrez PAK4), read-out: Residual activity (%)", "protocol": "as §2, §3, §4, §5"}, "[19]": {"biological_target": "PKBa (Homo sapiens, UniProt P31749)", "assay": "Premier Screen kinase panel (MRC PPU)", "type": "biochemical", "details": "PKBa (Entrez AKT1), read-out: Residual activity (%)", "protocol": "as §2, §3, §4, §5"}, "[20]": {"biological_target": "PRK2 (Homo sapiens, UniProt Q16513)", "assay": "Premier Screen kinase panel (MRC PPU)", "type": "biochemical", "details": "PRK2 (Entrez PKN2), read-out: Residual activity (%)", "protocol": "as §2, §3, §4, §5"}, "[21]": {"biological_target": "RSK1 (Homo sapiens, UniProt Q15418)", "assay": "Premier Screen kinase panel (MRC PPU)", "type": "biochemical", "details": "RSK1 (Entrez RPS6KA1), read-out: Residual activity (%)", "protocol": "as §2, §3, §4, §5"}, "[22]": {"biological_target": "SGK1 (Homo sapiens, UniProt O00141)", "assay": "Premier Screen kinase panel (MRC PPU)", "type": "biochemical", "details": "SGK1 (Entrez SGK1), read-out: Residual activity (%)", "protocol": "as §2, §3, §4, §5"}, "[23]": {"biological_target": "TBK1 (Homo sapiens, UniProt Q9UHD2)", "assay": "Premier Screen kinase panel (MRC PPU)", "type": "biochemical", "details": "TBK1 (Entrez TBK1), read-out: Residual activity (%)", "protocol": "as §2, §3, §4, §5"}, "[24]": {"biological_target": "TSSK1 (Homo sapiens, UniProt Q9BXA7)", "sequence (Q9BXA7 whole entry)": "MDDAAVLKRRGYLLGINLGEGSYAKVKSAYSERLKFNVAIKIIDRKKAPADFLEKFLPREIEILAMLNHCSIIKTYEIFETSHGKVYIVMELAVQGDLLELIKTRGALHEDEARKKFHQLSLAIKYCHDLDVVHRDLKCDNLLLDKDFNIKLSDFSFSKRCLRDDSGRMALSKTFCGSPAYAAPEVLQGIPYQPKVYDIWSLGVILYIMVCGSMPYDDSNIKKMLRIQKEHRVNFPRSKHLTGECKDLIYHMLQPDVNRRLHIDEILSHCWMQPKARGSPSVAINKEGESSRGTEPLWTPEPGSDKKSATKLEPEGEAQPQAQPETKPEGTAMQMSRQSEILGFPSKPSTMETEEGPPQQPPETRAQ", "assay": "Premier Screen kinase panel (MRC PPU)", "type": "biochemical", "details": "TSSK1 (Entrez TSSK1B), read-out: Residual activity (%)", "protocol": "as §2, §3, §4, §5"}, "[25]": {"biological_target": "ULK1 (Homo sapiens, UniProt O75385)", "assay": "Premier Screen kinase panel (MRC PPU)", "type": "biochemical", "details": "ULK1 (Entrez ULK1), read-out: Residual activity (%)", "protocol": "as §2, §3, §4, §5"}, "[26]": {"biological_target": "VEG-FR (Homo sapiens, UniProt P17948)", "assay": "Premier Screen kinase panel (MRC PPU)", "type": "biochemical", "details": "VEG-FR (Entrez FLT1), read-out: Residual activity (%)", "protocol": "as §2, §3, §4, §5"}, "[27]": {"biological_target": "p38d MAPK (Homo sapiens, UniProt O15264)", "sequence (O15264 whole entry)": "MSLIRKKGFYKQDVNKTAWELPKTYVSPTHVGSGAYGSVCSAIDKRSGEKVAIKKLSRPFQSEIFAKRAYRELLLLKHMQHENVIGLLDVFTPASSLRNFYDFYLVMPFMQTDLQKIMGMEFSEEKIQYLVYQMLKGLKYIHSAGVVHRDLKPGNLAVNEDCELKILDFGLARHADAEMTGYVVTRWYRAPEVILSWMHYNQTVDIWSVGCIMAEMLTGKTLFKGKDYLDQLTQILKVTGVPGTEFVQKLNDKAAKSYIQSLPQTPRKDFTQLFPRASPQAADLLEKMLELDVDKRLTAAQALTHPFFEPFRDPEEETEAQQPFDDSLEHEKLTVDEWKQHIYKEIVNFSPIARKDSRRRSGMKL", "assay": "Premier Screen kinase panel (MRC PPU)", "type": "biochemical", "details": "p38d MAPK (Entrez MAPK12), read-out: Residual activity (%)", "protocol": "as §2, §3, §4, §5"}},
  "data": [
    {"smiles": "COc1ccc(Nc2ncnc3c2ccn3-c2ccc(C)c(C)c2)cc1Cl", "note": "[compound 36]", "values": [
      {"measurement": "solubility at 2 h", "setting": "[1]", "value": 3, "unit": "µM"},
      {"measurement": "half-life at 1 µM", "setting": "[2]", "value": 11, "unit": "min"},
      {"measurement": "remaining activity at 1 µM", "setting": "[3]", "value": 15.6, "unit": "%"},
      {"measurement": "remaining activity at 1 µM", "setting": "[4]", "value": 89, "unit": "%"},
      {"measurement": "remaining activity at 1 µM", "setting": "[5]", "value": 111, "unit": "%"},
      {"measurement": "remaining activity at 1 µM", "setting": "[6]", "value": 99, "unit": "%"},
      {"measurement": "remaining activity at 1 µM", "setting": "[7]", "value": 89, "unit": "%"},
      {"measurement": "remaining activity at 1 µM", "setting": "[8]", "value": 83, "unit": "%"},
      {"measurement": "remaining activity at 1 µM", "setting": "[9]", "value": 101, "unit": "%"},
      {"measurement": "remaining activity at 1 µM", "setting": "[10]", "value": 98, "unit": "%"},
      {"measurement": "remaining activity at 1 µM", "setting": "[11]", "value": 96, "unit": "%"},
      {"measurement": "remaining activity at 1 µM", "setting": "[12]", "value": 85, "unit": "%"},
      {"measurement": "remaining activity at 1 µM", "setting": "[13]", "value": 109, "unit": "%"},
      {"measurement": "remaining activity at 1 µM", "setting": "[14]", "value": 127, "unit": "%"},
      {"measurement": "remaining activity at 1 µM", "setting": "[15]", "value": 115, "unit": "%"},
      {"measurement": "remaining activity at 1 µM", "setting": "[16]", "value": 92, "unit": "%"},
      {"measurement": "remaining activity at 1 µM", "setting": "[17]", "value": 87, "unit": "%"},
      {"measurement": "remaining activity at 1 µM", "setting": "[18]", "value": 78, "unit": "%"},
      {"measurement": "remaining activity at 1 µM", "setting": "[19]", "value": 90, "unit": "%"},
      {"measurement": "remaining activity at 1 µM", "setting": "[20]", "value": 86, "unit": "%"},
      {"measurement": "remaining activity at 1 µM", "setting": "[21]", "value": 109, "unit": "%"},
      {"measurement": "remaining activity at 1 µM", "setting": "[22]", "value": 97, "unit": "%"},
      {"measurement": "remaining activity at 1 µM", "setting": "[23]", "value": 92, "unit": "%"},
      {"measurement": "remaining activity at 1 µM", "setting": "[24]", "value": 98, "unit": "%"},
      {"measurement": "remaining activity at 1 µM", "setting": "[25]", "value": 102, "unit": "%"},
      {"measurement": "remaining activity at 1 µM", "setting": "[26]", "value": 99, "unit": "%"},
      {"measurement": "remaining activity at 1 µM", "setting": "[27]", "value": 128, "unit": "%"}
    ]}
  ]
}
